Results: patent publication US20240167001A1, “THREE-DIMENSIONAL TUMOR MODEL OF GLIOBLASTOMA AND BRAIN METASTASIS, METHODS OF MANUFACTURING SAME AND USES THEREOF” (Ramot at Tel-Aviv University Ltd., priority 2021, published 2024)

Legend:
T98G-F cells [1] = experiment: Proliferation in fibrin 3D-bio-ink in the presence of SELPi (ImageJ, RLU); type: cell-based, human; conditions: 0.5 M [sic] KF38789, fibrin 3D-bio-ink; p=0.00003
Method: (§1) PD-GB4 iRFP-labeled were casted into 96 glass bottom well plates (Cellvis, California, USA) in a core tumor at a density of 1×10^7 cells/ml and surrounded with 1×10^6 cells/ml un-labeled hAstro. Experiments were done in a medium mixture at 1:1:1 ratio of DMEM, astrocytes medium and microglia medium. For invasion estimation of dormant versus fast-growing cell types, mCherry-labeled U-87MG and T98-G human GB cells (2×10^6 cells/ml) were plated in a glass bottom 96-well plates in the core of fibrin 3D-bio-ink. The surrounding fibrin 3D-bio-ink was an empty, clear fibrin 3D-bio-ink. Experiments were done in a medium mixture at 1:1:1:1:1 ratio of DMEM, astrocytes medium, microglia medium, pericytes medium and Endo-Gro medium. Cell invasion was monitored for 2-5 weeks using EVOS FL Auto cell imaging system and quantified by ImageJ software, presented here as relative light units (RLU). Cells invasion was normalized by comparing the size of the cell core at day 1 (polygon drawing shape) up to day 14. 2 weeks. Each group contained 6-12 samples and the experiments were repeated in three independent times. For the evaluation of proliferation in the presence of P-selectin inhibitor (SELPi), mCherry-labeled U-87MG-F and T98G-F cells generating fast-growing tumors or iRFP-labeled PD-GB4 cells (4×10^6 cells/ml) were seeded in a glass bottom 96-well plate in the core of fibrin 3D-bio-ink. The surrounding fibrin 3D-bio-ink was an empty, clear fibrin 3D-bio-ink. Cells were then treated with […] KF38789 which is a selective inhibitor of P-selectin (SELPi) which were chosen to serve as a small molecule drug. […] P-selectin (SELP) functions as a cell adhesion molecule on the surfaces of cells which binds carbohydrates (18). It is also involved in tumor cell binding and promote their invasion by supporting a permissive metastatic microenvironment and SELP is highly expressed in GB (28). […] Proliferation was quantified during time with ImageJ software by RLU. […]

PD-GB4 cells [2] = experiment: as above; type: cell-based, human; conditions: 0.5 M [sic] KF38789, fibrin 3D-bio-ink; p=0.0001
Method: as §1

U-87MG-F cells [3] = experiment: as above; type: cell-based, human; conditions: 0.5 M [sic] KF38789, fibrin 3D-bio-ink; p=4×10^−6
Method: as §1

P-selectin (SELP) = target: T1, P-selectin (SELP) (Homo sapiens, UniProt P16109); conditions: lymphocytes; read-out: IC50 for inhibition of SELP binding in lymphocytes; cited from earlier work
T1 sequence (P16109 42-830): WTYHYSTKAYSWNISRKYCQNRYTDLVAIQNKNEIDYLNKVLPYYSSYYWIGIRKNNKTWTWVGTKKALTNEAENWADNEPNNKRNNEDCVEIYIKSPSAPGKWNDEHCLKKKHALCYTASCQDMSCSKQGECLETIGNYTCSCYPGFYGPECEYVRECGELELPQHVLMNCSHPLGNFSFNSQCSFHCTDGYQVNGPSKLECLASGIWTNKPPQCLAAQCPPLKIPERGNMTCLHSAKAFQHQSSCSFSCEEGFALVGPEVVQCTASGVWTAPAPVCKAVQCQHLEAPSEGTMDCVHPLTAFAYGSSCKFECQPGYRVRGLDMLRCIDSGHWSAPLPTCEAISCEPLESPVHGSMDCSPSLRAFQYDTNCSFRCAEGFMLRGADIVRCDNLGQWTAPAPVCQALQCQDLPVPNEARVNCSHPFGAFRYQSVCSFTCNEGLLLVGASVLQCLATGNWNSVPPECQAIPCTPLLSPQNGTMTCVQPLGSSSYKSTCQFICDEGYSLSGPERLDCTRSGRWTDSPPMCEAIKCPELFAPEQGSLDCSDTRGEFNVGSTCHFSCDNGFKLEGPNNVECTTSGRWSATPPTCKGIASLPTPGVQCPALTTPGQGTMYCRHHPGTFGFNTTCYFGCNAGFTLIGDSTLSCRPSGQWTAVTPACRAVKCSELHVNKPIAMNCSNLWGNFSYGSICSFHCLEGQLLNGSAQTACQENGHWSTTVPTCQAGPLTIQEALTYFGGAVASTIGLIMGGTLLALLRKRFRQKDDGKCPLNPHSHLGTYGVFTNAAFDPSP

T98G-F cells [4] = experiment: 2D proliferation assay with SELPi (IncuCyte); type: cell-based, human; conditions: 0.5 μM SELPi
Method: (§2) For growth curve evaluation, U-87MG and T98G human GB cells dormant and fast-growing tumor cells (29) (25,000 cells/well) were seeded onto 24-well plates in complete DMEM and incubated for 72 h (37° C.; 5% CO2). For the comparison of […] cell types growth curves in 2D culture, 10,000 cells/well were cultured in DMEM following a daily incubation with PrestoBlue® reagent for 4 h. For proliferation evaluation in the presence of SELPi, U-87MG and T98G human GB cells generating dormant and fast-growing tumors, or PD-GB4 cells (25,000 cells/well) were plated onto 24-well plate in complete DMEM and incubated for 24 h (37° C.; 5% CO2) to allow cell attachment. Cells were then treated with either 0.5 μM SELPi or with DMSO vehicle at corresponding % v/v of 0.2% v/v, prepared in medium mixture at 1:1:1:1:1 ratio of DMEM, astrocytes medium, microglia medium, pericytes medium and Endo-Gro medium, for 30 min. All wells were washed twice with PBS and incubated further with fresh medium mixture. Cell proliferation was monitored by IncuCyte® Zoom Live cell analysis system (Essen Bioscience), while the first images were taken right before the treatment. Each group was assayed in triplicates and the experiment was repeated in three independent times. Proliferation of cells was normalized to time 0 and presented as percent (%) of cell confluence.

PD-GB4 cells [5] = experiment: 2D proliferation assay with SELPi (IncuCyte); type: cell-based, human; conditions: 0.5 μM SELPi
Method: as §2

U-87MG-F cells [6] = experiment: 2D proliferation assay with SELPi (IncuCyte); type: cell-based, human; conditions: 0.5 μM SELPi
Method: as §2

patient-derived GB cells = experiment: TMZ resistance evaluation, patient-derived GB cells in 2D culture; type: cell-based; conditions: Homo sapiens, 72 h, 3 patient-derived GB cells, 3 days, all three cell types, read-out: IC50 of TMZ, patient-derived cells grown in 2D culture
Method: The resistance of patient-derived cells to TMZ (LIXIN, China) was assessed in fibrin 3D-bio-ink and in 2D culture. Patient-derived cells were seeded in fibrin 3D-bio-ink at 1×10^7 cells/ml density to match resemble a very dens GB tissue, in different TMZ concentrations (2000 μM -0.01 μM) for 7 days. For the 2D culture TMZ resistance evaluation 20,000-40,000 cells/well were seeded in 24 well plate in fresh DMEM. We replaced the media to media with different TMZ concentrations (10 μM -0.01 μM) for 3 days. Then, the 3D-bio-ink samples were placed in 500 μl PrestoBlue in 24 well plate and incubated at 37° C. for 3 h.

Compound	Inhibition of T98G fast-growing cells in fibrin 3D-bio-ink (T98G-F cells [1])	Inhibition of PD-GB4 cell proliferation in fibrin 3D-bio-ink (PD-GB4 cells [2])	Inhibition of U-87MG fast-growing cells in fibrin 3D-bio-ink (U-87MG-F cells [3])	IC50 (P-selectin (SELP)) [nM]	Effect on T98G-F cells in 2D culture (T98G-F cells [4])	Effect on proliferation of PD-GB4 in 2D culture (PD-GB4 cells [5])	Effect on U-87MG-F cells in 2D culture (U-87MG-F cells [6])	IC50 (patient-derived GB cells) [nM]
COc1ccc(C2CC(c3c(O)cc(C)oc3=O)=NCCS2)c(OC)c1 (centres unmarked) [SELPi, KF38789]	significant inhibition	significant inhibition	significant inhibition	2000	did not affect	did not affect	did not affect	
Cn1nnc2c(C(N)=O)ncn2c1=O [TMZ, Temozolomide]								~4
